# Experimental data reported in US20090197897A1, “Novel Oxadiazole Derivatives and Their Use as Positive Allosteric Modulators of Metabotropic Glutamate Receptors” (Addex Pharma SA, priority 2005, published 2009).
# Counter-ions that a name gives are not always drawn.
# Target: T1, rat mGluR5 (Rattus norvegicus, UniProt P31424)
# T1 construct: expressed in transfected cells
# Assay: mGluR5 assay on HEK-expressing rat mGluR5 (fluorescent cell based Ca2+ mobilization assay)
# Settings: HEK-293 cells stably expressing rat mGluR5; no co-addition of glutamate; mean of at least three independent experiments in duplicate; read-out: Ca++ Flux (mean EC50)
# Description: mGluR5 Assay on HEK-Expressing Rat mGluR5
# Positive functional expression of HEK-293 cells stably expressing rat mGluR5 receptor was determined by measuring intracellular Ca^2+ changes using a Fluorometric Imaging Plate Reader (FLIPR, Molecular Devices, Sunnyvale, Calif.) in response to glutamate or selective known mGluR5 agonists and antagonists. Rat mGluR5 RT-PCR products in HEK-293 cells were sequenced and found 100% identical to rat mGluR5 Genbank reference sequence (NM_017012). HEK-293 cells expressing rmGluR5 were maintained in media containing DMEM, dialyzed Fetal Bovine Serum (10%), Glutamax™ (2 mM), Penicillin (100 units/ml), Streptomycin (100 μg/ml), Geneticin (100 μg/ml) and Hygromycin-B (40 μg/ml) at 37° C./5% CO2.
# After one day of incubation, cells were washed with assay buffer containing: 142 mM NaCl, 6 mM KCl, 1 mM […], 1 mM CaCl2, 20 mM HEPES, 1 g/L glucose, 0.125 mM sulfinpyrazone, pH 7.4. After 60 min of loading with 4 uM Fluo-4 (TefLabs, Austin, Tex.), the cells were washed three times with 50 μl of PBS Buffer and resuspended in 45 μl of assay Buffer. The plates were then transferred to a Fluorometric Imaging Plate Reader (FLIPR, Molecular Devices, Sunnyvale, Calif.) for the assessment of intracellular calcium flux. After monitoring the baseline fluorescence for 10 seconds, increasing concentrations of representative compound (from 0.01 to 60 μM) of the present invention diluted in Assay Buffer (15 μl of 4× dilutions) was added to the cell. The final DMSO concentration in the assay was 0.3%. In each experiment, fluorescence was then monitored as a function of time for 3 minutes and the data analyzed using Microsoft Excel and GraphPad Prism. Each data point was also measured two times.
# Under these experimental conditions, this HEK-rat mGluR5 cell line is able to directly detect positive allosteric modulators without the need of co-addition of glutamate or mGluR5 agonist.
# The concentration-response curves of representative compounds of the present invention were generated using the Prism GraphPad software (Graph Pad Inc, San Diego, USA). The curves were fitted to a four-parameter logistic equation:
# (Y=Bottom+(Top−Bottom)/(1+10̂((Log EC50−X)*Hill Slope)
# allowing determination of EC50 values.
# The Table 1 below represents the mean EC50 obtained from at least three independent experiments of selected molecules performed in duplicate.
# T1 sequence (P31424 21-1171 isoform P31424-2 limits assumed): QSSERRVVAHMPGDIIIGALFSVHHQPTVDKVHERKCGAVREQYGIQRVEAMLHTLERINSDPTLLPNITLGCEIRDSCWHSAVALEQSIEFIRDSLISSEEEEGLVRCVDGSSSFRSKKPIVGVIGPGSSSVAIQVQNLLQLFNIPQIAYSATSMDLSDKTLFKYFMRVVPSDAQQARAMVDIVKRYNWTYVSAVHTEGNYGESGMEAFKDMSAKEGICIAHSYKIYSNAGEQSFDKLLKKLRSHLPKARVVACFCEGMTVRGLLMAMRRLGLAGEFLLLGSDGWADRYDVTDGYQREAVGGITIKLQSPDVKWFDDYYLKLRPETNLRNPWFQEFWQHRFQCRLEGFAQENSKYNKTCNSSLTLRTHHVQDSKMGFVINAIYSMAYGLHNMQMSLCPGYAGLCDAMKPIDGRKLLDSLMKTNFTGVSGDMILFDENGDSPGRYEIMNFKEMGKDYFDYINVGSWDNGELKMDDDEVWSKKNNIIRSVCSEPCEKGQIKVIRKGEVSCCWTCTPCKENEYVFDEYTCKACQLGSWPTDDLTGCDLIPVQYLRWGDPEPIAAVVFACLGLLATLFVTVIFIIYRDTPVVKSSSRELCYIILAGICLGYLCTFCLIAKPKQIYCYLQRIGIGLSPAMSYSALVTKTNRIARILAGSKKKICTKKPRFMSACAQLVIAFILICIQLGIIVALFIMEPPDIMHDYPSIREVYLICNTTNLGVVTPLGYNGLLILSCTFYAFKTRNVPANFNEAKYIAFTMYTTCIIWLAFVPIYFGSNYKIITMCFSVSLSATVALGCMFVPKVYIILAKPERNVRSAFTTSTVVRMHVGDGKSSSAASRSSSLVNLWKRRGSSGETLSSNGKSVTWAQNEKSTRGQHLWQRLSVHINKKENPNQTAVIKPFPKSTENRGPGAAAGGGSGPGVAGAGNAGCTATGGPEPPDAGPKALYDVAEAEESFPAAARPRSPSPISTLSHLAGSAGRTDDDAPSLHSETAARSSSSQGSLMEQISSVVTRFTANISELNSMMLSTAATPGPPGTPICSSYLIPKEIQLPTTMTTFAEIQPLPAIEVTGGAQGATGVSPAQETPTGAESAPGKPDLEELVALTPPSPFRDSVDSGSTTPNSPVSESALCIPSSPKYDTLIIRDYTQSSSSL
row,SMILES,EC50
1,"Cc1nocc1C(=O)N1CCC[C@H](c2nc(-c3ccc(F)cc3)no2)C1 [Example 4, (S)-{3-[3-(4-Fluoro-phenyl)-[1,2,4]oxadiazol-5-yl]-piperidin-1-yl}-(3-methyl-isoxazol-4-yl)-methanone]",1 to 10 µM
2,"O=C(c1cccc(COc2ccccc2)c1)N1CCC[C@H](c2nc(-c3ccc(F)cc3)no2)C1 [Example 6, {(S)-3-[3-(4-Fluoro-phenyl)-[1,2,4]oxadiazol-5-yl]-piperidin-1-yl}-(3-phenoxymethyl-phenyl)-methanone]",> 10 µM
3,"O=C(C1CCc2cc(F)ccc21)N1CCC[C@H](c2nc(-c3ccc(F)cc3)no2)C1 (stereo partly drawn) [Example 8, (5-Fluoro-indan-1-yl)-{(S)-3-[3-(4-fluoro-phenyl)-[1,2,4]oxadiazol-5-yl]-piperidin-1-yl}-methanone]",> 10 µM
4,"Cc1nnsc1C(=O)N1CCC[C@H](c2nc(-c3ccc(F)cc3)no2)C1 [Example 13, {(S)-3-[3-(4-Fluoro-phenyl)-[1,2,4]oxadiazol-5-yl]-piperidin-1-yl}-(4-methyl-[1,2,3]thiadiazol-5-yl)-methanone]",1 to 10 µM
5,"O=C(c1cccnc1F)N1CCC[C@H](c2nc(-c3ccc(F)cc3)no2)C1 [Example 14, {(S)-3-[3-(4-Fluoro-phenyl)-[1,2,4]oxadiazol-5-yl]-piperidin-1-yl}-(2-fluoro-pyridin-3-yl)-methanone]",1 to 10 µM
6,"O=C(c1ccccn1)N1CCC[C@H](c2nc(-c3ccc(F)cc3)no2)C1 [Example 15, {(S)-3-[3-(4-Fluoro-phenyl)-[1,2,4]oxadiazol-5-yl]-piperidin-1-yl}-pyridin-2-yl-methanone hydrochloride]",1 to 10 µM
7,"Cc1nc(C)c(C(=O)N2CCC[C@H](c3nc(-c4ccc(F)cc4)no3)C2)s1 [Example 18, (2,4-Dimethyl-thiazol-5-yl)-{(S)-3-[3-(4-fluoro-phenyl)-[1,2,4]oxadiazol-5-yl]-piperidin-1-yl}-methanone]",1 to 10 µM
8,"Cc1ccccc1C(=O)N1CCC[C@H](c2nc(-c3ccc(F)cc3)no2)C1 [Example 19, {(S)-3-[3-(4-Fluoro-phenyl)-[1,2,4]oxadiazol-5-yl]-piperidin-1-yl}-o-tolyl-methanone]",1 to 10 µM
9,"CCc1ccccc1C(=O)N1CCC[C@H](c2nc(-c3ccc(F)cc3)no2)C1 [Example 20, (2-Ethyl-phenyl)-{3-[3-(4-fluoro-phenyl)-[1,2,4]oxadiazol-5-yl]-piperidin-1-yl}-methanone]",1 to 10 µM
10,"Cc1c(C(=O)N2CCC[C@H](c3nc(-c4ccc(F)cc4)no3)C2)cnn1C [Example 21, (1,5-Dimethyl-1H-pyrazol-4-yl)-{(S)-3-[3-(4-fluoro-phenyl)-[1,2,4]oxadiazol-5-yl]-piperidin-1-yl}-methanone]",1 to 10 µM
11,"O=C(c1ccoc1)N1CCC[C@H](c2nc(-c3ccc(F)cc3)no2)C1 [Example 22, {(S)-3-[3-(4-Fluoro-phenyl)-[1,2,4]oxadiazol-5-yl]-piperidin-1-yl}-furan-3-yl-methanone]",1 to 10 µM
12,"Cc1occc1C(=O)N1CCC[C@H](c2nc(-c3ccc(F)cc3)no2)C1 [Example 24, {(S)-3-[3-(4-Fluoro-phenyl)-[1,2,4]oxadiazol-5-yl]-piperidin-1-yl}-(2-methyl-furan-3-yl)-methanone]",1 to 10 µM
13,"O=C(c1ccsc1Br)N1CCC[C@H](c2nc(-c3ccc(F)cc3)no2)C1 [Example 28, (S)-(2-Bromo-thiophen-3-yl)-{3-[3-(4-fluoro-phenyl)-[1,2,4]oxadiazol-5-yl]-piperidin-1-yl}-methanone]",1 to 10 µM
14,"Cc1ccoc1C(=O)N1CCC[C@H](c2nc(-c3ccc(F)cc3)no2)C1 [Example 30, (S)-{3-[3-(4-Fluoro-phenyl)-[1,2,4]oxadiazol-5-yl]-piperidin-1-yl}-(3-methyl-furan-2-yl)-methanone]",1 to 10 µM
15,"COc1ccsc1C(=O)N1CCC[C@H](c2nc(-c3ccc(F)cc3)no2)C1 [Example 31, {(S)-3-[3-(4-Fluoro-phenyl)-[1,2,4]oxadiazol-5-yl]-piperidin-1-yl}-(3-methoxy-thiophen-2-yl)-methanone]",> 10 µM
16,"Cc1cc(F)ccc1C(=O)N1CCC[C@H](c2nc(-c3ccc(F)cc3)no2)C1 [Example 32, (4-Fluoro-2-methyl-phenyl)-{(S)-3-[3-(4-fluoro-phenyl)-[1,2,4]oxadiazol-5-yl]-piperidin-1-yl}-methanone]",< 1 µM

row,SMILES,EC50
1,"Cc1cccc(-c2noc([C@H]3CCCN(C(=O)c4ccc(F)cc4)C3)n2)n1 [Example 33, (4-Fluoro-phenyl)-{(S)-3-[3-(6-methyl-pyridin-2-yl)-[1,2,4]oxadiazol-5-yl]-piperidin-1-yl}-methanone]",1 to 10 µM
2,"Cc1ccc(-c2noc([C@H]3CCCN(C(=O)c4ccc(F)cc4)C3)n2)o1 [Example 34, (4-Fluoro-phenyl)-{(S)-3-[3-(5-methyl-furan-2-yl)-[1,2,4]oxadiazol-5-yl]-piperidin-1-yl}-methanone]",1 to 10 µM
3,"O=C(c1ccc(F)cc1)N1CCC[C@H](c2nc(-c3ccco3)no2)C1 [Example 35, (4-Fluoro-phenyl)-[(S)-3-(3-furan-2-yl-[1,2,4]oxadiazol-5-yl)-piperidin-1-yl]-methanone]",1 to 10 µM
4,"Cc1sccc1C(=O)N1CCC[C@H](c2nc(-c3ccc(F)cc3)no2)C1 [Example 36, {(S)-3-[3-(4-Fluoro-phenyl)-[1,2,4]oxadiazol-5-yl]-piperidin-1-yl}-(2-methyl-thiophen-3-yl)-methanone]",1 to 10 µM
5,"O=C(c1ccc(F)cc1)N1CCC[C@H](c2nc(-c3cccs3)no2)C1 [Example 37, (4-Fluoro-phenyl)-[(S)-3-(3-thiophen-2-yl-[1,2,4]oxadiazol-5-yl)-piperidin-1-yl]-methanone]",< 1 µM
6,"O=C(c1ccc(F)cc1)N1CCC[C@H](c2nc(-c3ccsc3)no2)C1 [Example 38, (4-Fluoro-phenyl)-[(S)-3-(3-thiophen-3-yl-[1,2,4]oxadiazol-5-yl)-piperidin-1-yl]-methanone]",< 1 µM
7,"Cn1cccc1-c1noc([C@H]2CCCN(C(=O)c3ccc(F)cc3)C2)n1 [Example 39, (4-Fluoro-phenyl)-{(S)-3-[3-(1-methyl-1H-pyrrol-2-yl)-[1,2,4]oxadiazol-5-yl]-piperidin-1-yl}-methanone]",1 to 10 µM
8,"Cc1cccnc1-c1noc([C@H]2CCCN(C(=O)c3ccc(F)cc3)C2)n1 [Example 40, (4-Fluoro-phenyl)-{(S)-3-[3-(3-methyl-pyridin-2-yl)-[1,2,4]oxadiazol-5-yl]-piperidin-1-yl}-methanone]",> 10 µM
9,"O=C(c1c[nH]nc1C(F)(F)F)N1CCC[C@H](c2nc(-c3ccc(F)cc3)no2)C1 [Example 41, {(S)-3-[3-(4-Fluoro-phenyl)-[1,2,4]oxadiazol-5-yl]-piperidin-1-yl}-(3-trifluoromethyl-1H-pyrazol-4-yl)-methanone]",> 10 µM
10,"CNc1cc(F)ccc1C(=O)N1CCC[C@H](c2nc(-c3ccc(F)cc3)no2)C1 [Example 42, (4-Fluoro-2-methylamino-phenyl)-{(S)-3-[3-(4-fluoro-phenyl)-[1,2,4]oxadiazol-5-yl]-piperidin-1-yl}-methanone]",> 10 µM
11,"Cc1oncc1C(=O)N1CCC[C@H](c2nc(-c3ccsc3)no2)C1 [Example 44, (5-Methyl-isoxazol-4-yl)-[(S)-3-(3-thiophen-3-yl-[1,2,4]oxadiazol-5-yl)-piperidin-1-yl]-methanone]",< 1 µM
12,"CCc1oncc1C(=O)N1CCC[C@H](c2nc(-c3ccc(F)cc3)no2)C1 [Example 46, (5-Ethyl-isoxazol-4-yl)-{(S)-3-[3-(4-fluoro-phenyl)-[1,2,4]oxadiazol-5-yl]-piperidin-1-yl}-methanone]",1 to 10 µM
13,"COCc1oncc1C(=O)N1CCC[C@H](c2nc(-c3ccc(F)cc3)no2)C1 [Example 47, {(S)-3-[3-(4-Fluoro-phenyl)-[1,2,4]oxadiazol-5-yl]-piperidin-1-yl}-(5-methoxymethyl-isoxazol-4-yl)-methanone]",1 to 10 µM
14,"Cc1ccccc1-c1noc([C@H]2CCCN(C(=O)c3ccc(F)cc3)C2)n1 [Example 48, (4-Fluoro-phenyl)-[(S)-3-(3-o-tolyl-[1,2,4]oxadiazol-5-yl)-piperidin-1-yl]-methanone]",> 10 µM
15,"CNc1ccccc1C(=O)N1CCC[C@H](c2nc(-c3ccc(F)cc3)no2)C1 [Example 49, {(S)-3-[3-(4-Fluoro-phenyl)-[1,2,4]oxadiazol-5-yl]-piperidin-1-yl}-(2-methylamino-phenyl)-methanone]",1 to 10 µM
